The values below come from ChEMBL document CHEMBL5715949, “Discovery of a selective irreversible BMX inhibitor for prostate cancer” (ACS Chem Biol, 2013).

Series [1] can be described thus: Cytotoxicity against mouse BaF3 cells assessed growth inhibition incubated for 2 to 5 days by CellTiter-Glo assay. The format is toxicity, cell-based. Particulars: time 2-5 day.
Series [2] relates to BaF3. Put plainly: Antiproliferative activity against mouse BaF3 cells expressing TEL-fused BMX assessed growth inhibition incubated for 2 to 5 days by CellTiter-Glo assay. Format: functional, cell-based. Particulars: time 2-5 day.
Series [3] has as its system BaF3. Put plainly: Antiproliferative activity against mouse BaF3 cells expressing TEL-fused JAK1 assessed growth inhibition incubated for 2 to 5 days by CellTiter-Glo assay. Particulars: time 2-5 day. The format is functional. Background: Cellular ATP, detected with luciferase, serves as a proxy for viable cell number.
For series [4], the system named is BaF3. Put plainly: Antiproliferative activity against mouse BaF3 cells expressing TEL-fused JAK2 assessed growth inhibition incubated for 2 to 5 days by CellTiter-Glo assay. Particulars: time 2-5 day. The format is functional.
The subject of series [5] is BaF3. Put plainly: Antiproliferative activity against mouse BaF3 cells expressing TEL-fused JAK3 assessed growth inhibition incubated for 2 to 5 days by CellTiter-Glo assay. The format is functional. To be noted: time 2-5 day.
In series [6] the test system is BaF3. In words: Antiproliferative activity against mouse BaF3 cells expressing TEL-fused TYK2 […] mutant assessed growth inhibition incubated for 2 to 5 days by CellTiter-Glo assay. Format: functional. To be noted: time 2-5 day.
Series [7] concerns BaF3. Put plainly: Antiproliferative activity against mouse BaF3 cells expressing TEL-fused BLK assessed growth inhibition incubated for 2 to 5 days by CellTiter-Glo assay. Format: functional. To be noted: time 2-5 day.
For series [8], the system named is RV-1. Put plainly: Down regulation of BMX protein expression in human RV-1 cells expressing wild type BMX at 5 uM incubated for 72 hrs by western blot analysis. Format: functional, cell-based. (In general: In western blotting, separated proteins are transferred to a membrane and probed.)
The subject of series [9] is RV-1. In words: Down regulation of BMX protein expression in human RV-1 cells expressing BMX C496S mutant at 5 uM incubated for 72 hrs by western blot analysis. The format is functional, cell-based.
Series [10] is described as follows: Down regulation of BMX protein expression in human RV-1 cells expressing wild type BMX assessed protein expression level at 2.5 uM pre incubated for 4 hrs followed by compound wash out and additon of CHX and measured after 16 hrs by immunoblot analysis (reference value: 0.98 to 1.01). The format is functional.
A short description of series [11]: Down regulation of BMX protein expression in human RV-1 cells expressing wild type BMX assessed protein expression level at 2.5 uM pre incubated for 4 hrs followed by compound wash out and additon of CHX and measured after 24 hrs by immunoblot analysis (reference value: 0.98 to 1.01). Format: functional.
The nature of series [12]: Down regulation of BMX protein expression in human RV-1 cells expressing BMX C496S mutant assessed protein expression level at 2.5 uM pre incubated for 4 hrs followed by compound wash out and additon of CHX and measured after 16 hrs by immunoblot analysis (reference value: 1.01 to 1.13). The format is functional.
A short description of series [13]: Down regulation of BMX protein expression in human RV-1 cells expressing BMX C496S mutant assessed protein expression level at 2.5 uM pre incubated for 4 hrs followed by compound wash out and additon of CHX and measured after 24 hrs by immunoblot analysis (reference value: 1.01 to 1.13). Format: functional.
The subject of series [14] is RV-1. Put plainly: Antiproliferative activity against human RV-1 cells assessed as reduction in cell viability at 1. 5 to 20 uM incubated for 3 days by tryphan blue assay. The format is functional, cell-based. Particulars: dose 5-20 µM, time 3.0 day.
The target in series [15] is Cytoplasmic tyrosine-protein kinase BMX (Homo sapiens) (UniProt P51813). Put plainly: Inhibition of BMX (unknown origin) at < 10 uM by Z'LYTE assay.
Chain of Cytoplasmic tyrosine-protein kinase BMX (Homo sapiens) (P51813 whole entry): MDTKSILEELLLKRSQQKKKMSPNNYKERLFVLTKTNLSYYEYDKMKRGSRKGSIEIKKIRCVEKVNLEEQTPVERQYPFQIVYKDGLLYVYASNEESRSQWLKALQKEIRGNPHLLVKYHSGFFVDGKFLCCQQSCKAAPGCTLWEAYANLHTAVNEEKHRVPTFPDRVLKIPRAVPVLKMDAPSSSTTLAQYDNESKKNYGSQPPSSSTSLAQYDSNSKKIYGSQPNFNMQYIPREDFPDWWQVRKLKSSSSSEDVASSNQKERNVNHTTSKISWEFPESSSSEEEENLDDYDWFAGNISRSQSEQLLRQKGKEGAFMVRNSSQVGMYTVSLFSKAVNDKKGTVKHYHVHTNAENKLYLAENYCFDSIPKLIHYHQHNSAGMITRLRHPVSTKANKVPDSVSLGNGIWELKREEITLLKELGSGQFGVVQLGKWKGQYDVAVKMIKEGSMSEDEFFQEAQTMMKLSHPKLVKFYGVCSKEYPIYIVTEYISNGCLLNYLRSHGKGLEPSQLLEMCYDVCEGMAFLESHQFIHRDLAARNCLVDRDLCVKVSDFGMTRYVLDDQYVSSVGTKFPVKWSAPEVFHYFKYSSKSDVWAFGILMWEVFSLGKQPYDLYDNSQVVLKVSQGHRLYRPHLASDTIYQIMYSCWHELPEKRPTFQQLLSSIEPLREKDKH
Series [16] can be described thus: Induction of cell cycle arrest in human RV-1 cells assessed as accumulation of cells at G1 phase at 200 nM incubated for 5 days by propidium iodide staining based flow cytometric analysis (reference value: 59.7 %). Format: functional. Particulars: time 5 day. A general note: In flow cytometry, cells or beads pass a laser one at a time.
Series [17] in a line: Induction of cell cycle arrest in human RV-1 cells assessed as accumulation of cells at G2/M phase at 200 nM incubated for 5 days by propidium iodide staining based flow cytometric analysis (reference value: 11.4 %). Format: functional. Particulars: time 5 day.
The nature of series [18]: Induction of cell cycle arrest in human RV-1 cells assessed as accumulation of cells at S phase at 200 nM incubated for 5 days by propidium iodide staining based flow cytometric analysis (reference value: 28.9 %). The format is functional. Particulars: time 5 day.
The nature of series [19]: Inhibition of PI3K/AKT/mTOR signalling pathway in human RV-1 cells assessed as decrease in AKT phosphorylation at T308 residue at 200 nM incubated for 4 hrs by immunoblot analysis. The format is cell-based.
Series [20] is described as follows: Inhibition of PI3K/AKT/mTOR signalling pathway in human RV-1 cells assessed as decrease in AKT phosphorylation at S473 residue at 200 nM incubated for 4 hrs by immunoblot analysis. The format is cell-based.
Series [21] can be described thus: Inhibition of PI3K/AKT/mTOR signalling pathway in human RV-1 cells assessed as decrease in PRAS40 phosphorylation at T246 residue at 200 nM incubated for 4 hrs by immunoblot analysis. The format is cell-based.
Series [22] can be described thus: Inhibition of PI3K/AKT/mTOR signalling pathway in human RV-1 cells assessed as decrease in 4EBP phosphorylation at T37/46 residue at 200 nM incubated for 5 days by immunoblot analysis. The format is cell-based. To be noted: time 5.0 day.
The nature of series [23]: Inhibition of PI3K/AKT/mTOR signalling pathway in human RV-1 cells assessed as decrease in S6K phosphorylation at T389 residue at 200 nM incubated for 5 days by immunoblot analysis. Format: cell-based. Particulars: time 5.0 day.

The structures appear in SMILES notation. Calls of active or inactive are those of the source. The rule behind the calls is not given here.

As for `CCC(=O)Nc1cc(-n2c(=O)ccc3cnc4ccc(NS(C)(=O)=O)cc4c32)ccc1C`, the GI50 (in series [1]; in the series on BaF3 [2]; in the series with BaF3 [3]; in the series with BaF3 [4]; with BaF3 [5]; in the series with BaF3 [6]) was > 10 µM throughout. The GI50 (usually the concentration that inhibits growth by half) in the series with BaF3 [7] was > 10 µM. In addition, the outcome in the series with RV-1 [8] and with RV-1 [9] was inactive. In addition, the Activity was found to be 0.64 in [10], 0.72 in [11], 0.8 in [12] and 0.51 in [13].
In the case of `C=CC(=O)N1CCC[C@@H](n2nc(-c3ccc(Oc4ccccc4)cc3)c3c(N)ncnc32)C1`, in the series on RV-1 [14], the result was Active.
On to `Cl.NC1(c2ccc(-c3nc4ccn5c(=O)[nH]nc5c4cc3-c3ccccc3)cc2)CCC1`, for which, in series [15], the inhibition result was “inactive”. Moreover, the Activity is 60% in series [16], 10.9% in [17] and 29.1% in [18]. The inhibition result in series [19], in series [20], in series [21], in [22] and in series [23] was “Active” each time.
